Data: the supplement of paper PMC10307832

Tests used:
Test in all cases: relative viability (nuclei count vs DMSO), 5 days (fraction); higher = more cells survive
[1] = compound: Cc1ccccc1C(C(=O)NC1CCCCC1)N(C(=O)Cn1ccnc1C)c1cccc(F)c1 [IDH-C35] + CC1(C)CCC(c2ccc(Cl)cc2)=C(CN2CCN(c3ccc(C(=O)NS(=O)(=O)c4ccc(N[C@H](CCN5CCOCC5)CSc5ccccc5)c(S(=O)(=O)C(F)(F)F)c4)cc3)CC2)C1 [Navitoclax] (partner 0.5 µM)
In short: (§1)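 Lung cancer cell lines in 1536-well plates got either a single drug or a fixed anchor-drug dose together with five library-drug doses (not always all listed) in √10 steps, by pin tool, on the day after seeding. Nuclei were counted after 5 days, and relative viability is the treated-to-vehicle ratio of nuclei counts. Values are medians of duplicate plates.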

[2] = compound: Cc1ccccc1C(C(=O)NC1CCCCC1)N(C(=O)Cn1ccnc1C)c1cccc(F)c1 [IDH-C35] + C[C@@H](Oc1cc(-c2cnn(C3CCNCC3)c2)cnc1N)c1c(Cl)ccc(F)c1Cl [Crizotinib] (partner 1 µM)
In short: as §1

[3] = compound: CC1=C(C(=NN1)C)CC2=C(C3=C(S2)N(C(=O)N(C3=O)C)CC(C)C)C(=O)N4C[C@@H](CO4)O + Cc1cc(Nc2cc(N3CCN(C)CC3)nc(Sc3ccc(NC(=O)C4CC4)cc3)n2)n[nH]1 [Tozasertib] (partner 0.1 µM)
In short: as §1

[4] = compound: Cc1ccccc1C(C(=O)NC1CCCCC1)N(C(=O)Cn1ccnc1C)c1cccc(F)c1 [IDH-C35] + Nc1nc2[nH]cc(CCc3ccc(C(=O)N[C@@H](CCC(=O)O)C(=O)O)cc3)c2c(=O)[nH]1 [Pemetrexed] (partner 0.2 µM)
In short: as §1

Row | Cell Line | relative viability ([1]; first compound 0.08 µM) | relative viability ([1]; first compound 0.253 µM) | relative viability ([1]; first compound 0.8 µM) | relative viability ([1]; first compound 2.53 µM) | relative viability ([1]; first compound 8 µM) | relative viability ([2]; first compound 0.08 µM) | relative viability ([2]; first compound 0.253 µM) | relative viability ([2]; first compound 0.8 µM) | relative viability ([2]; first compound 2.53 µM) | relative viability ([2]; first compound 8 µM) | relative viability ([3]; first compound 0.0025 µM) | relative viability ([3]; first compound 0.007906 µM) | relative viability ([3]; first compound 0.025 µM) | relative viability ([3]; first compound 0.07906 µM) | relative viability ([3]; first compound 0.25 µM) | relative viability ([4]; first compound 0.08 µM) | relative viability ([4]; first compound 0.253 µM) | relative viability ([4]; first compound 0.8 µM) | relative viability ([4]; first compound 2.53 µM) | relative viability ([4]; first compound 8 µM)
1 | SK-MES-1 | 1.18 | 1.03 | 1.28 | 1.14 | 1.27 | 1.05 | 0.953 | 0.912 | 0.937 | 0.986 | 0.904 | 0.983 | 0.872 | 1.05 | 0.908 | 0.91 | 0.988 | 0.925 | 0.861 | 0.874
2 | NCI-H2170 | 0.626 | 0.535 | 0.595 | 0.479 | 0.627 | 1.25 | 1.2 | 1.14 | 1.17 | 1.22 | 0.67 | 0.734 | 0.736 | 0.599 | 0.8 | 0.277 | 0.341 | 0.265 | 0.267 | 0.262
3 | NCI-H2085 | 1.21 | 1.25 | 1.15 | 1.14 | 1.21 | 0.808 | 0.749 | 0.877 | 0.954 | 0.781 | 0.723 | 0.622 | 0.76 | 0.72 | 0.669 | 0.943 | 0.889 | 0.889 | 0.893 | 0.888
4 | SW 1573 | 0.964 | 1.07 | 1.07 | 0.841 | 1.02 | 0.759 | 0.889 | 0.798 | 1.01 | 0.713 | 0.16 | 0.171 | 0.198 | 0.284 | 0.214 | 0.692 | 0.889 | 0.879 | 0.789 | 0.763
